pIC50: −log10 of the molar value. Values joined by “and” are separate entries in the source; they are usually repeats but may differ in a detail not shown here. Equal entries are not always repeated. Where two headings read alike, the source gives them in different places. Values belong to the molecule of their own block, whether it stands above or below them.
How the values were obtained:
[1] = target: c-Kit (Homo sapiens, UniProt P10721); assay: c-Kit tyrosine kinase inhibition, Caliper screening (fluorescent substrate phosphorylation, electrophoretic separation); type: biochemical; settings: for pIC50: averages of replicate wells; for c-Kit Fold: fold of IC50 relative to sunitinib
Sequence of c-Kit (P10721 26-976): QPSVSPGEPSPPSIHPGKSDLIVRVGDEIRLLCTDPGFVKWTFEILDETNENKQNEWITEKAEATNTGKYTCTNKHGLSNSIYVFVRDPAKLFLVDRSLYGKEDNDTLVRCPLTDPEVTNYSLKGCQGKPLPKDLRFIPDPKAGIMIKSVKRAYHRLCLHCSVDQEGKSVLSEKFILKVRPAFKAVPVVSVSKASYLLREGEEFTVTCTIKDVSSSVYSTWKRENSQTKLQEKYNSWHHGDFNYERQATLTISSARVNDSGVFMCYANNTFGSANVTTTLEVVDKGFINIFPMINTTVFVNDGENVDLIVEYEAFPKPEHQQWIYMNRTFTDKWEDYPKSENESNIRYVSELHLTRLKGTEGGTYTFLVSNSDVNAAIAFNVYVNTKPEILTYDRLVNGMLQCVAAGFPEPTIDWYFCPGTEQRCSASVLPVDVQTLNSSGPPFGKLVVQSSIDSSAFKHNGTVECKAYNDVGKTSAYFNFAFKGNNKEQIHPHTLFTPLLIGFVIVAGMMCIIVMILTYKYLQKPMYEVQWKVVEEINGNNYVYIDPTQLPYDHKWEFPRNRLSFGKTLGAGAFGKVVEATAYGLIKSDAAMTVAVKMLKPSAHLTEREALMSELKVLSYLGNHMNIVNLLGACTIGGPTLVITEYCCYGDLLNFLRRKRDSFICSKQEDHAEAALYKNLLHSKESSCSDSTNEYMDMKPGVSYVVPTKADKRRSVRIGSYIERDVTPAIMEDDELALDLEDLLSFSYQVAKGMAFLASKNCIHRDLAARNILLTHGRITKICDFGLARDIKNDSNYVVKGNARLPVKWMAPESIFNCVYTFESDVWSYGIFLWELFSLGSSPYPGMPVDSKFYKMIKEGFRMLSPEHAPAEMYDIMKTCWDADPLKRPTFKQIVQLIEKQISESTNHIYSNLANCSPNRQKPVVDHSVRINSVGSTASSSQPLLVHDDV

[2] = target: RET (Homo sapiens, UniProt P07949); assay: RET kinase inhibition, Caliper screening (fluorescent substrate phosphorylation, electrophoretic separation); settings: for RET Fold: fold of IC50 relative to sunitinib
Sequence of RET (P07949 29-1114, species assumed): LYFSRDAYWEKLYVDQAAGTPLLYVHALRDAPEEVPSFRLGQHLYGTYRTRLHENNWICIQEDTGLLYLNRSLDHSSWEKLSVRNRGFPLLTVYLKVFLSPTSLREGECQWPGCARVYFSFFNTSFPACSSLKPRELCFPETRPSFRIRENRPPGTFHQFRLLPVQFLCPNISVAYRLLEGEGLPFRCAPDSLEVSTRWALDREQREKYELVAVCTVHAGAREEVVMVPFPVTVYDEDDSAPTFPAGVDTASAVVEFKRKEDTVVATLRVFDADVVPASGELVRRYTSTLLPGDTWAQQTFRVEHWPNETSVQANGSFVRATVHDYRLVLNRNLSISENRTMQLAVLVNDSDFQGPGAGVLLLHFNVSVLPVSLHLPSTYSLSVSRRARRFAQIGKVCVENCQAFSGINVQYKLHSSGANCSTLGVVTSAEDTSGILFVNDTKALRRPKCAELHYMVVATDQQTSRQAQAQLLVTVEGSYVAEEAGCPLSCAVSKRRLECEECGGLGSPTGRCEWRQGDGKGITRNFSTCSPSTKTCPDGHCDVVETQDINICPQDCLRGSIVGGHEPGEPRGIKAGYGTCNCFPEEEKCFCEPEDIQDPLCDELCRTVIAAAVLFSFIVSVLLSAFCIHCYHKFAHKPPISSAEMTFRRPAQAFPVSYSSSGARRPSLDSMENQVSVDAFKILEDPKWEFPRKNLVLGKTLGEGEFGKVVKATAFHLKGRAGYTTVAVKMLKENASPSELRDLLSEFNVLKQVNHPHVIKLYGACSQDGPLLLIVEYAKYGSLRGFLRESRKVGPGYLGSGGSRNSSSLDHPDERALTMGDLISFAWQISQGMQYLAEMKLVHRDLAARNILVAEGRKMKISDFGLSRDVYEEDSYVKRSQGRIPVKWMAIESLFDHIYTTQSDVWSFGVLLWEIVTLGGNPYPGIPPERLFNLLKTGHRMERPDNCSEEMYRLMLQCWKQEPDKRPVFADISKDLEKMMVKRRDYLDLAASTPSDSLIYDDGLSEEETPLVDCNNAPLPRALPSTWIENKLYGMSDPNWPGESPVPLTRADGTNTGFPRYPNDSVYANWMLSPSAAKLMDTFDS

[3] = target: VEGFR-2 (Homo sapiens, UniProt P35968); assay: VEGFR-2 kinase inhibition, Caliper screening (fluorescent substrate phosphorylation, electrophoretic separation)
Sequence of VEGFR-2 (P35968 20-1356, species assumed): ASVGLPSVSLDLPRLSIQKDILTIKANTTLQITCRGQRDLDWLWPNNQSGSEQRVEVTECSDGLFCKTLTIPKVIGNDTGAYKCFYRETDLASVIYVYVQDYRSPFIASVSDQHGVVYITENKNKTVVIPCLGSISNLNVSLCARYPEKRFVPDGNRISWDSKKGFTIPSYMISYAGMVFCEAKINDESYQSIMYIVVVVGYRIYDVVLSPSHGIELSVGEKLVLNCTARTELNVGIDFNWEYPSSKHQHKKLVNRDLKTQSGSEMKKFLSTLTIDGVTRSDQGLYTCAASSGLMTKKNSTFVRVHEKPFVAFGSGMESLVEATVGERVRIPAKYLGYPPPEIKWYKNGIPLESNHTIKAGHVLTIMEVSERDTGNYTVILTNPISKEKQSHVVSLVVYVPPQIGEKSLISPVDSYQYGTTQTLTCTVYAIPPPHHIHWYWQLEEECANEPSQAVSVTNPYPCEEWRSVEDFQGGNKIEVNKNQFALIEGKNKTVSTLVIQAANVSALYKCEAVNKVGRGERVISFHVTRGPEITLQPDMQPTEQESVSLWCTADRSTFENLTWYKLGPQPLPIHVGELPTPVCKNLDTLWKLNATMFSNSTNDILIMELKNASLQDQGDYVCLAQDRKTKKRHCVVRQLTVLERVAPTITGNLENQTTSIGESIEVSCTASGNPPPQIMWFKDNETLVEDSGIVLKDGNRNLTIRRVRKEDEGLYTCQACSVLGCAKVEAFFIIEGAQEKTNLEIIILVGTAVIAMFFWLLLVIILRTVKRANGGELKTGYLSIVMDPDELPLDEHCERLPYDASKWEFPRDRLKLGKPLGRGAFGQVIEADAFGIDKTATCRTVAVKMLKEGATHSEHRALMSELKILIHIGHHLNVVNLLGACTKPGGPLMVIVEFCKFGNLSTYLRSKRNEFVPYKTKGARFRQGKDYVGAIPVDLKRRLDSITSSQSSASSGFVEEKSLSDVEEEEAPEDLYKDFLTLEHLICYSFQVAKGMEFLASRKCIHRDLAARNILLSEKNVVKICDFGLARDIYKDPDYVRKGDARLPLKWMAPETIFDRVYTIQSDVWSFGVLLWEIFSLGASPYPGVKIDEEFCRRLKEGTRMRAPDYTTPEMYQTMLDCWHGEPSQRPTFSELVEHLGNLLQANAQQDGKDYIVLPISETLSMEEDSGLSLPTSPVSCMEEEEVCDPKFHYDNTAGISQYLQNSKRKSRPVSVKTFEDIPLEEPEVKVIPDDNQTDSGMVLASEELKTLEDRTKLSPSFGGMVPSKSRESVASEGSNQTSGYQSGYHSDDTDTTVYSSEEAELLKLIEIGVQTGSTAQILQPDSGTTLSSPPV

[4] = concentration 1.0E−05 (unit not given)
[5] = concentration 1.0E−06 (unit not given)
[6] = concentration 1.0E−07 (unit not given)
[7] = concentration 1.0E−08 (unit not given)
[8] = concentration 1.0E−09 (unit not given)
[9] = concentration 1.0E−10 (unit not given)
[10] = concentration 3.0E−05 (unit not given)
[11] = concentration 3.0E−06 (unit not given)
[12] = concentration 3.0E−07 (unit not given)
[13] = concentration 3.0E−08 (unit not given)
[14] = concentration 3.0E−09 (unit not given)
[15] = concentration 3.0E−10 (unit not given)

SMILES: COCCOCCOCCOCCOCCNC(=O)c1c(C)[nH]c(/C=C2\C(=O)Nc3ccc(F)cc32)c1C [mPEG5-semaxanib, (Z)-5-((5-fluoro-2-oxoindolin-3-ylidene)methyl)-2,4-dimethyl-1H-pyrrole-3-mPEG5-amide]
- pIC50 [1]: 6.64
- c-Kit AVG % Activity at Specific Concentration [1, 4]: −1%
- c-Kit AVG % Activity at Specific Concentration [1, 5]: 6%
- c-Kit AVG % Activity at Specific Concentration [1, 6]: 76%
- c-Kit AVG % Activity at Specific Concentration [1, 7]: 106%
- c-Kit AVG % Activity at Specific Concentration [1, 8]: 100%
- c-Kit AVG % Activity at Specific Concentration [1, 9]: 90%
- c-Kit AVG % Activity at Specific Concentration [1, 10]: −1%
- c-Kit AVG % Activity at Specific Concentration [1, 11]: 0%
- c-Kit AVG % Activity at Specific Concentration [1, 12]: 37%
- c-Kit AVG % Activity at Specific Concentration [1, 13]: 96%
- c-Kit AVG % Activity at Specific Concentration [1, 14]: 99%
- c-Kit AVG % Activity at Specific Concentration [1, 15]: 99%
- c-Kit Fold [1]: 3.10
- pIC50 [2]: 6.36
- RET AVG % Activity at Specific Concentration [2, 4]: 0%
- RET AVG % Activity at Specific Concentration [2, 5]: 29%
- RET AVG % Activity at Specific Concentration [2, 6]: 84%
- RET AVG % Activity at Specific Concentration [2, 7]: 99%
- RET AVG % Activity at Specific Concentration [2, 8]: 98%
- RET AVG % Activity at Specific Concentration [2, 9]: 98%
- RET AVG % Activity at Specific Concentration [2, 10]: −1%
- RET AVG % Activity at Specific Concentration [2, 11]: 6%
- RET AVG % Activity at Specific Concentration [2, 12]: 59%
- RET AVG % Activity at Specific Concentration [2, 13]: 95%
- RET AVG % Activity at Specific Concentration [2, 14]: 102%
- RET AVG % Activity at Specific Concentration [2, 15]: 99%
- RET Fold [2]: 10.23

SMILES: COCCOCCOCCOCCOCCOCCNC(=O)c1c(C)[nH]c(/C=C2\C(=O)Nc3ccc(F)cc32)c1C [mPEG6-semaxanib, (Z)-5-((5-fluoro-2-oxoindolin-3-ylidene)methyl)-2,4-dimethyl-1H-pyrrole-3-mPEG6-amide]
- pIC50 [1]: 6.54
- c-Kit AVG % Activity at Specific Concentration [1, 4]: −1%
- c-Kit AVG % Activity at Specific Concentration [1, 5]: 8%
- c-Kit AVG % Activity at Specific Concentration [1, 6]: 79%
- c-Kit AVG % Activity at Specific Concentration [1, 7]: 94%
- c-Kit AVG % Activity at Specific Concentration [1, 8]: 97%
- c-Kit AVG % Activity at Specific Concentration [1, 9]: 91%
- c-Kit AVG % Activity at Specific Concentration [1, 10]: −1%
- c-Kit AVG % Activity at Specific Concentration [1, 11]: 0%
- c-Kit AVG % Activity at Specific Concentration [1, 12]: 44%
- c-Kit AVG % Activity at Specific Concentration [1, 13]: 95%
- c-Kit AVG % Activity at Specific Concentration [1, 14]: 99%
- c-Kit AVG % Activity at Specific Concentration [1, 15]: 87%
- c-Kit Fold [1]: 3.90
- VEGFR-2 AVG % Activity at Specific Concentration [3]: 96% and 93%

- pIC50 [1]: 6.49
- c-Kit AVG % Activity at Specific Concentration [1, 4]: −1%
- c-Kit AVG % Activity at Specific Concentration [1, 5]: 11%
- c-Kit AVG % Activity at Specific Concentration [1, 6]: 82%
- c-Kit AVG % Activity at Specific Concentration [1, 7]: 96%
- c-Kit AVG % Activity at Specific Concentration [1, 8]: 97%
- c-Kit AVG % Activity at Specific Concentration [1, 9]: 97%
- c-Kit AVG % Activity at Specific Concentration [1, 10]: −1%
- c-Kit AVG % Activity at Specific Concentration [1, 11]: 1%
- c-Kit AVG % Activity at Specific Concentration [1, 12]: 49%
- c-Kit AVG % Activity at Specific Concentration [1, 13]: 96%
- c-Kit AVG % Activity at Specific Concentration [1, 14]: 98%
- c-Kit AVG % Activity at Specific Concentration [1, 15]: 96%
- c-Kit Fold [1]: 4.30
- pIC50 [2]: 6.21
- RET AVG % Activity at Specific Concentration [2, 4]: 2%
- RET AVG % Activity at Specific Concentration [2, 5]: 38%
- RET AVG % Activity at Specific Concentration [2, 6]: 85%
- RET AVG % Activity at Specific Concentration [2, 7]: 98%
- RET AVG % Activity at Specific Concentration [2, 8]: 99%
- RET AVG % Activity at Specific Concentration [2, 9]: 98%
- RET AVG % Activity at Specific Concentration [2, 10]: 0%
- RET AVG % Activity at Specific Concentration [2, 11]: 14%
- RET AVG % Activity at Specific Concentration [2, 12]: 68%
- RET AVG % Activity at Specific Concentration [2, 13]: 93%
- RET AVG % Activity at Specific Concentration [2, 14]: 99%
- RET AVG % Activity at Specific Concentration [2, 15]: 98%
- RET Fold [2]: 14.42
- pIC50 [3]: 6.51
- VEGFR-2 AVG % Activity at Specific Concentration [3, 4]: −3%
- VEGFR-2 AVG % Activity at Specific Concentration [3, 5]: 19%
- VEGFR-2 AVG % Activity at Specific Concentration [3, 6]: 80%
- VEGFR-2 AVG % Activity at Specific Concentration [3, 7]: 95%
- VEGFR-2 AVG % Activity at Specific Concentration [3, 8]: 95%
- VEGFR-2 AVG % Activity at Specific Concentration [3, 9]: 98%
- VEGFR-2 AVG % Activity at Specific Concentration [3, 10]: −6%
- VEGFR-2 AVG % Activity at Specific Concentration [3, 11]: 0%
- VEGFR-2 AVG % Activity at Specific Concentration [3, 12]: 46%
- VEGFR-2 AVG % Activity at Specific Concentration [3, 13]: 90%
- VEGFR-2 AVG % Activity at Specific Concentration [3, 14]: 93%
- VEGFR-2 AVG % Activity at Specific Concentration [3, 15]: 94%
- VEGFR-2 Fold ([3]; fold of IC50 relative to sunitinib): 6.33
SMILES: COCCOCCOCCOCCOCCOCCOCCNC(=O)c1c(C)[nH]c(/C=C2\C(=O)Nc3ccc(F)cc32)c1C [mPEG7-semaxanib, (Z)-5-((5-fluoro-2-oxoindolin-3-ylidene)methyl)-2,4-dimethyl-1H-pyrrole-3-mPEG7-amide]

Source: patent US11007270B2, “Polymer-semaxanib moiety conjugates” (Nektar Therapeutics, priority 2010, dated 2021)
